The text below walks through data of ChEMBL document CHEMBL4411288, “Design, synthesis and biological evaluation of novel 7-amino-[1,2,4]triazolo[4,3-f]pteridinone, and 7-aminotetrazolo[1,5-f]pteridinone derivative as potent antitumor agents” (Eur J Med Chem, 2019).

The test system of one experiment is A549. The experiment can be described thus: Cytotoxicity against human A549 cells assessed as reduction in cell viability after 72 hrs by MTT assay. The settings on record: A549, 72 h. It counts as functional, cell-based. (Tetrazolium dyes change colour on reduction, which living cells bring about.)
A further experiment deals with HCT-116. The experiment can be described thus: Cytotoxicity against human HCT116 cells assessed as reduction in cell viability after 72 hrs by MTT assay. It counts as functional, cell-based. The settings on record: HCT-116, 72 h.
The subject of another experiment is PC-3. The experiment can be described thus: Cytotoxicity against human PC3 cells assessed as reduction in cell viability after 72 hrs by MTT assay. The class given is functional, cell-based. The settings on record: PC-3, 72 h.
For a further experiment, the system named is MCF7. The experiment can be described thus: cells. The settings on record: Homo sapiens, MCF7, 72 h.
A further experiment relates to MDA-MB-231. The experiment can be described thus: cells. The settings on record: Homo sapiens, MDA-MB-231, 72 h.
Experiment [1] deals with Serine/threonine-protein kinase PLK1 (Homo sapiens) (UniProt P53350). The experiment can be described thus: Inhibition of recombinant human N-terminal His6-tagged PLK1 expressed in baculovirus infected Sf21 insect cells at 1 uM using FAM-labelled peptide as substrate preincubated for 10 mins followed by substrate addition measured after 1 hr relative to control.
Serine/threonine-protein kinase PLK1 (Homo sapiens), sequence (P53350 whole entry): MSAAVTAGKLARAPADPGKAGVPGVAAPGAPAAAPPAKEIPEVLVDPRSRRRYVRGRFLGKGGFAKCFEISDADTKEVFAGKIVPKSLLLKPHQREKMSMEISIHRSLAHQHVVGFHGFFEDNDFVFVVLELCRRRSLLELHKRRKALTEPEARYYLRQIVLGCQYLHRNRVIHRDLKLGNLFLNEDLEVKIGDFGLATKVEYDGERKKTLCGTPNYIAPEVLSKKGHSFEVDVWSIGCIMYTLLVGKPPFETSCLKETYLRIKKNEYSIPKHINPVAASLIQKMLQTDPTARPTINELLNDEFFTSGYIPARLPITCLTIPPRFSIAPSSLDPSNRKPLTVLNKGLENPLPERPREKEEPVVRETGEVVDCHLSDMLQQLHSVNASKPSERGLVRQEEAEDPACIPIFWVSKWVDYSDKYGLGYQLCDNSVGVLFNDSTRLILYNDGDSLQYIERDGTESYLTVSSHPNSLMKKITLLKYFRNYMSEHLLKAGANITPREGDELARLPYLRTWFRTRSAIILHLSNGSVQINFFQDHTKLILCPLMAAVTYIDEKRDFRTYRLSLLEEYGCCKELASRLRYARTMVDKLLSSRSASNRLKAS

Description for MCF7: Cytotoxicity against human MCF7 cells assessed as reduction in cell viability after 72 hrs by MTT assay
Description for MDA-MB-231: Cytotoxicity against human MDA-MB-231 cells assessed as reduction in cell viability after 72 hrs by MTT assay

Turning to `Cc1nnc2c(=O)n(C3CCCC3)c3nc(Nc4ccc(NC5CCCC5)cc4)ncc3n12`, the IC50 (in general, the concentration that gives 50% inhibition) was 9.29 µM in the experiment on A549; more than 50 µM in the experiment with HCT-116; more than 50 µM in the experiment on PC-3; more than 50 µM in the experiment on MCF7; more than 50 µM with MDA-MB-231.
With `Cc1nnc2c(=O)n(C3CCCC3)c3nc(Nc4ccc(N5CCC(C)CC5)cc4)ncc3n12`, the IC50 was more than 50 µM in the experiment on A549; 11.2 µM in the experiment on HCT-116; more than 50 µM in the experiment with PC-3; more than 50 µM in the experiment with MCF7; more than 50 µM in the experiment on MDA-MB-231.
For `Cc1nnc2c(=O)n(C3CCCC3)c3nc(Nc4ccc(N(C)C)cc4)ncc3n12`, the IC50 in the experiment on A549 was 8.86 µM; with HCT-116, 29.1 µM; with PC-3, more than 50 µM; in the experiment on MCF7, more than 50 µM; in the experiment on MDA-MB-231, more than 50 µM.
For `O=c1c2nnnn2c2cnc(Nc3ccc(N4CCOCC4)cc3)nc2n1C1CCCC1`, the IC50 in the experiment on A549 was 4.81 µM; in the experiment with HCT-116 it was 43.2 µM; with PC-3, more than 50 µM; with MCF7, more than 50 µM; in the experiment with MDA-MB-231 it was 48.5 µM.
Take `CN1CCN(C2CCN(c3ccc(Nc4ncc5c(n4)n(C4CCCC4)c(=O)c4nnnn45)cc3)CC2)CC1`: the IC50 in the experiment on A549 is 1.28 µM; with HCT-116, 7.62 µM; with PC-3 it was more than 50 µM; with MCF7, more than 50 µM; in the experiment on MDA-MB-231, 5.81 µM.
Turning to `CCN1CCN(c2ccc(Nc3ncc4c(n3)n(C3CCCC3)c(=O)c3nnnn34)cc2)CC1`, the IC50 in the experiment with A549 was 3.57 µM; with HCT-116, more than 50 µM; in the experiment with PC-3, 16.1 µM; in the experiment with MCF7, more than 50 µM; in the experiment with MDA-MB-231, more than 50 µM.
As to `O=c1c2nnnn2c2cnc(Nc3ccc(N4CCSCC4)cc3)nc2n1C1CCCC1`, the IC50 in the experiment on A549 is more than 50 µM; in the experiment with HCT-116, more than 50 µM; with PC-3 it was more than 50 µM; in the experiment with MCF7 it was more than 50 µM; in the experiment with MDA-MB-231 it was 37.4 µM.
As to `Cc1nnc2c(=O)n(C3CCCC3)c3nc(Nc4ccc(N5CCOCC5)cc4)ncc3n12`, the IC50 with A549 is 4.29 µM; in the experiment on HCT-116, 8.91 µM; in the experiment on PC-3, more than 50 µM; in the experiment on MCF7, more than 50 µM; in the experiment with MDA-MB-231, more than 50 µM.
Consider `Cc1nnc2c(=O)n(C3CCCC3)c3nc(Nc4ccc(N5CCSCC5)cc4)ncc3n12`, for which the IC50 in the experiment with A549 was 7.19 µM; with HCT-116, 5.82 µM; in the experiment with PC-3 it was more than 50 µM; in the experiment with MCF7, more than 50 µM; with MDA-MB-231, more than 50 µM.
Consider `O=c1c2nnnn2c2cnc(Nc3ccc(N4CCCC4)cc3)nc2n1C1CCCC1`, for which the IC50 was 7.86 µM with A549; more than 50 µM in the experiment with HCT-116; more than 50 µM in the experiment on PC-3; more than 50 µM with MCF7; more than 50 µM with MDA-MB-231.
Regarding `CC(=O)c1c(C)c2cnc(Nc3ccc(N4CCNCC4)cn3)nc2n(C2CCCC2)c1=O` [PALBOCICLIB], the IC50 amounted to 1.32 µM with A549; 8.9 µM with HCT-116; 2.2 µM in the experiment on PC-3; 4.09 µM in the experiment with MCF7; 3.5 µM with MDA-MB-231.
`Cc1nnc2c(=O)n(C3CCCC3)c3nc(Nc4ccc(N5CCN(C)CC5)cc4)ncc3n12`: the IC50 in the experiment on A549 turned out to be 1.92 µM; in the experiment on HCT-116, 72.8 µM; with PC-3 it was 7.61 µM; in the experiment with MCF7 it was 1.05 µM; with MDA-MB-231 it was 0.61 µM. The inhibition (in general, the share of the control response that was lost under treatment) in experiment [1] amounted to 26.1%.
With `CC1CCN(c2ccc(Nc3ncc4c(n3)n(C3CCCC3)c(=O)c3nnnn34)cc2)CC1`, the IC50 with A549 was 4.92 µM; in the experiment on HCT-116, more than 50 µM; with PC-3, more than 50 µM; with MCF7, more than 50 µM; in the experiment on MDA-MB-231 it was more than 50 µM.
With `O=c1c2nnnn2c2cnc(Nc3ccc(N4CCCCC4)cc3)nc2n1C1CCCC1`, the IC50 was 1.16 µM in the experiment with A549; more than 50 µM in the experiment on HCT-116; more than 50 µM in the experiment with PC-3; more than 50 µM in the experiment with MCF7; more than 50 µM with MDA-MB-231.
Regarding `O=c1c2nncn2c2cnc(Nc3ccc(N4CCSCC4)cc3)nc2n1C1CCCC1`, the IC50 in the experiment with A549 was 2.12 µM; in the experiment with HCT-116, 12 µM; in the experiment with PC-3, more than 50 µM; with MCF7, more than 50 µM; in the experiment with MDA-MB-231, 6.4 µM.
With `Cc1nnc2c(=O)n(C3CCCC3)c3nc(Nc4ccc(N5CCC(N6CCN(C)CC6)CC5)cc4)ncc3n12`, the IC50 was 2.38 µM in the experiment on A549; 12.1 µM in the experiment on HCT-116; more than 50 µM in the experiment on PC-3; 3.21 µM in the experiment on MCF7; 5.85 µM in the experiment on MDA-MB-231.
The matching figures for `Cc1nnc2c(=O)n(C3CCCC3)c3nc(Nc4ccc(N5CCCC5)cc4)ncc3n12`: more than 50 µM, more than 50 µM, more than 50 µM, more than 50 µM and more than 50 µM.
For the compound `CN(C)c1ccc(Nc2ncc3c(n2)n(C2CCCC2)c(=O)c2nncn23)cc1`, the IC50 in the experiment with A549 is 3.89 µM; in the experiment with HCT-116 it was 19.1 µM; in the experiment on PC-3, more than 50 µM; in the experiment with MCF7 it was 7.28 µM; with MDA-MB-231 it was more than 50 µM.
On to `O=c1c2nnnn2c2cnc(Nc3ccc(N4CCN(CCO)CC4)cc3)nc2n1C1CCCC1`, for which the IC50 was 3.85 µM in the experiment on A549; more than 50 µM in the experiment with HCT-116; more than 50 µM in the experiment with PC-3; 2.31 µM in the experiment with MCF7; more than 50 µM with MDA-MB-231.
Consider `O=c1c2nnnn2c2cnc(Nc3ccc(N4CCN(C5CCCC5)CC4)cc3)nc2n1C1CCCC1`, for which the IC50 was more than 50 µM in the experiment on A549; 2.12 µM with HCT-116; more than 50 µM in the experiment on PC-3; more than 50 µM with MCF7; more than 50 µM in the experiment on MDA-MB-231.
Consider `Cc1nnc2c(=O)n(C3CCCC3)c3nc(Nc4ccc(N5CCC(O)CC5)cc4)ncc3n12`, for which the IC50 in the experiment on A549 is 21.7 µM; with HCT-116, 18.1 µM; in the experiment on PC-3 it was more than 50 µM; in the experiment with MCF7, more than 50 µM; in the experiment on MDA-MB-231, more than 50 µM.
For the compound `CN(C)c1ccc(Nc2ncc3c(n2)n(C2CCCC2)c(=O)c2nnnn23)cc1`, the IC50 is 10.1 µM with A549; more than 50 µM in the experiment with HCT-116; more than 50 µM in the experiment with PC-3; 2.58 µM with MCF7; more than 50 µM in the experiment on MDA-MB-231.
As for `CN1CCN(C2CCN(c3ccc(Nc4ncc5c(n4)n(C4CCCC4)c(=O)c4nncn45)cc3)CC2)CC1`, the IC50 is 2.95 µM with A549; 9.3 µM with HCT-116; 13.4 µM in the experiment on PC-3; more than 50 µM in the experiment on MCF7; more than 50 µM with MDA-MB-231.
With `O=c1c2nnnn2c2cnc(Nc3ccc(N4CCC(O)CC4)cc3)nc2n1C1CCCC1`, the IC50 is more than 50 µM in the experiment with A549; 36.3 µM in the experiment with HCT-116; more than 50 µM with PC-3; more than 50 µM in the experiment with MCF7; 53.5 µM in the experiment with MDA-MB-231.
With `CC1CCN(c2ccc(Nc3ncc4c(n3)n(C3CCCC3)c(=O)c3nncn34)cc2)CC1`, the IC50 in the experiment on A549 was 3.31 µM; with HCT-116, 12 µM; in the experiment on PC-3 it was more than 50 µM; in the experiment on MCF7, more than 50 µM; in the experiment on MDA-MB-231 it was 4.9 µM.
Take `O=c1c2nncn2c2cnc(Nc3ccc(N4CCOCC4)cc3)nc2n1C1CCCC1`: the IC50 in the experiment on A549 was 38.9 µM; in the experiment on HCT-116, 8.91 µM; in the experiment on PC-3 it was more than 50 µM; with MCF7, more than 50 µM; with MDA-MB-231 it was 3.5 µM.
As to `CCN1CCN(c2ccc(N(C(C)=O)c3ncc4c(n3)n(C3CCCC3)c(=O)c3nnc(C)n34)cc2)CC1`, the IC50 with A549 is 20.2 µM; in the experiment with HCT-116, 40.3 µM; in the experiment with PC-3 it was more than 50 µM; in the experiment on MCF7 it was more than 50 µM; in the experiment with MDA-MB-231, more than 50 µM.
With `O=c1c2nnnn2c2cnc(Nc3ccc(NC4CCCC4)cc3)nc2n1C1CCCC1`, the IC50 in the experiment with A549 was more than 50 µM; with HCT-116, 43.2 µM; in the experiment with PC-3 it was more than 50 µM; with MCF7, more than 50 µM; with MDA-MB-231 it was 8.95 µM.
As for `O=c1c2nncn2c2cnc(Nc3ccc(N4CCN(CCO)CC4)cc3)nc2n1C1CCCC1`, the IC50 in the experiment on A549 is 9.8 µM; in the experiment on HCT-116 it was 9.71 µM; in the experiment on PC-3 it was 19.1 µM; with MCF7 it was 1.91 µM; in the experiment on MDA-MB-231 it was more than 50 µM.
With `O=c1c2nncn2c2cnc(Nc3ccc(N4CCN(C5CCCC5)CC4)cc3)nc2n1C1CCCC1`, the IC50 was more than 50 µM in the experiment with A549; 22.3 µM in the experiment on HCT-116; more than 50 µM in the experiment on PC-3; more than 50 µM in the experiment on MCF7; 3.96 µM in the experiment with MDA-MB-231.
For the compound `Cc1nnc2c(=O)n(C3CCCC3)c3nc(Nc4ccc(N5CCCCC5)cc4)ncc3n12`, the IC50 is 5.24 µM in the experiment on A549; 19.1 µM in the experiment on HCT-116; more than 50 µM in the experiment on PC-3; more than 50 µM in the experiment on MCF7; 6.26 µM in the experiment with MDA-MB-231.
For `O=c1c2nncn2c2cnc(Nc3ccc(NC4CCCC4)cc3)nc2n1C1CCCC1`, the IC50 in the experiment with A549 is more than 50 µM; with HCT-116, 21.2 µM; with PC-3, more than 50 µM; in the experiment on MCF7, more than 50 µM; in the experiment with MDA-MB-231, more than 50 µM.
In the case of `O=c1c2nncn2c2cnc(Nc3ccc(N4CCC(O)CC4)cc3)nc2n1C1CCCC1`, the IC50 in the experiment with A549 is 41.7 µM; in the experiment with HCT-116 it was 36.1 µM; with PC-3, more than 50 µM; with MCF7, more than 50 µM; in the experiment on MDA-MB-231, 8.1 µM.
On to `O=c1c2nncn2c2cnc(Nc3ccc(N4CCCCC4)cc3)nc2n1C1CCCC1`, for which the IC50 with A549 was 3.11 µM; in the experiment with HCT-116, 20.1 µM; with PC-3, more than 50 µM; with MCF7, more than 50 µM; in the experiment with MDA-MB-231, 3.85 µM.
For the compound `O=c1c2nncn2c2cnc(Nc3ccc(N4CCCC4)cc3)nc2n1C1CCCC1`, the IC50 in the experiment with A549 was 5.63 µM; with HCT-116, 49.3 µM; in the experiment with PC-3 it was 11.3 µM; in the experiment with MCF7, more than 50 µM; in the experiment on MDA-MB-231 it was more than 50 µM.
